Measurements: patent publication US6765010B2, “Compositions and methods for enhancing analgesic potency of tramadol and attenuating its adverse side effects” (Pain Therapeutics, Inc., priority 1999, dated 2004)
Where two headings read alike, the source gives them in different places.

Experiments:
[1] = test system: human subjects/patients with pain following dental surgery; format: in vivo
[2] = test system: human subjects/patients with pain following dental surgery; assay: Dental surgery pain study: visual analog scale pain intensity difference (VAS-PID, VAS-SPID); format: in vivo; conditions: LOCF; for Hourly Visual Analog-PID (VAS-PID) score, Mean / Hourly Visual Analog-PID (VAS-PID) score, Median: ITT subjects
[3] = test system: human subjects/patients with pain following dental surgery; assay: Dental surgery pain study: remedication (rescue medication); format: in vivo; conditions: ITT
Excerpt: (§1) For this randomized, double-blind, active-controlled and placebo-controlled, parallel-group study, human subjects were randomized into one of the following five treatment groups:
(§2) A positive control (T, Group 4) was used to determine the sensitivity of the clinical end points. A negative control (placebo, Group 5) was used to establish the frequency and magnitude of changes in clinical end points that may occur in the absence of an active treatment. A single oral dose of study medication was administered when the subject experienced moderate to severe pain following the surgical extraction of three or four third molars. At least one of the molars was required to be mandibular bony impacted.
The subject was then given a rescue medication and discontinued from study. The subject was encouraged to wait at least until Hour 2 after administration of the study medication before using rescue medication. Subjects remedicating earlier than Hour 1 were not included in the analysis for efficacy. Subjects not remedicating during the eight hours of evaluation received a diary card and asked to record the time of remedication after they left the clinic.
Time to remedication (or rescue medication) was analyzed using the Kaplan-Meier estimate to compute the survival distribution function. The distribution was compared among groups using the Log Rank Test. A subject was considered censored at eight hours if remedication had not occurred. Pairwise comparisons were made using the LIFETEST methodology. Hochberg's procedure was used to control the family-wise type 1 error. Time to Onset of Meaningful Relief (determined by the stopwatch) was similarly analyzed. […] In all the above analyses baseline pain intensity could be used as a stratification factor. […] The sample size was estimated from historical data and from practical considerations rather than from calculation of expected measured differences.

[4] = test system: human subjects/patients with pain following dental surgery; assay: Dental surgery pain study: global evaluations; format: in vivo; conditions: ITT
Excerpt: as §1, §2
At the end of eight hours, or at the termination of hourly observations if sooner than eight hours, a global assessment was made by the subject and the observer in response to the question, “How do you rate the pain relief?” with response choices of excellent, very good, good, fair or poor. Assessment of adverse events continued for at least one hour following rescue medication. Subjects not completing at least the Hour 1 observation period were considered not evaluable for efficacy and were replaced.

α2-adrenoreceptors = conditions: cited from earlier work

Compound: COc1cccc([C@@]2(O)CCCC[C@@H]2CN(C)C)c1.Cl (racemic) [tramadol, (1RS,2RS)-2[(dimethylamino)-methyl]-1-(3-methoxyphenyl)-cyclohexanol HCL]
- Hourly Pain Relief Score (PAR), Mean ([1]; Hour 0.5, ITT): 0.28
- Hourly Pain Relief Score (PAR), Median ([1]; Hour 0.5, ITT): 0
- Hourly Pain Relief Score (PAR), Mean ([1]; Hour 1, ITT): 0.40
- Hourly Pain Relief Score (PAR), Median ([1]; Hour 1, ITT): 0
- Hourly Pain Relief Score (PAR), Mean ([1]; Hour 2, ITT): 0.76
- Hourly Pain Relief Score (PAR), Median ([1]; Hour 2, ITT): 0
- Hourly Pain Relief Score (PAR), Mean ([1]; Hour 3, ITT): 0.80
- Hourly Pain Relief Score (PAR), Median ([1]; Hour 3, ITT): 0
- Hourly Pain Relief Score (PAR), Mean ([1]; Hour 4, ITT): 0.94
- Hourly Pain Relief Score (PAR), Median ([1]; Hour 4, ITT): 0
- Hourly Pain Relief Score (PAR), Mean ([1]; Hour 5, ITT): 0.84
- Hourly Pain Relief Score (PAR), Median ([1]; Hour 5, ITT): 0
- Hourly Pain Relief Score (PAR), Mean ([1]; Hour 6, ITT): 0.86
- Hourly Pain Relief Score (PAR), Median ([1]; Hour 6, ITT): 0
- Hourly Pain Relief Score (PAR), Mean ([1]; Hour 7, ITT): 0.82
- Hourly Pain Relief Score (PAR), Median ([1]; Hour 7, ITT): 0
- Hourly Pain Relief Score (PAR), Mean ([1]; Hour 8, ITT): 0.86
- Hourly Pain Relief Score (PAR), Median ([1]; Hour 8, ITT): 0
- TOTPAR up to 4 Hours, Mean ([1]; ITT, single oral dose, LOCF): 3.18
- TOTPAR up to 4 Hours, Median ([1]; ITT, single oral dose, LOCF): 2
- TOTPAR up to 6 Hours, Mean ([1]; ITT, single oral dose, LOCF): 4.88
- TOTPAR up to 6 Hours, Median ([1]; ITT, single oral dose, LOCF): 2
- TOTPAR up to 8 Hours, Mean ([1]; ITT, single oral dose, LOCF): 6.56
- TOTPAR up to 8 Hours, Median ([1]; ITT, single oral dose, LOCF): 2
- Hourly Visual Analog-PID (VAS-PID) score, Mean ([2]; Hour 0.5): −6.16
- Hourly Visual Analog-PID (VAS-PID) score, Median ([2]; Hour 0.5): −4
- Hourly Visual Analog-PID (VAS-PID) score, Mean ([2]; Hour 1): −7.54
- Hourly Visual Analog-PID (VAS-PID) score, Median ([2]; Hour 1): −7
- Hourly Visual Analog-PID (VAS-PID) score, Mean ([2]; Hour 2): −2.58
- Hourly Visual Analog-PID (VAS-PID) score, Median ([2]; Hour 2): −4
- Hourly Visual Analog-PID (VAS-PID) score, Mean ([2]; Hour 3): −1.76
- Hourly Visual Analog-PID (VAS-PID) score, Median ([2]; Hour 3): −2
- Hourly Visual Analog-PID (VAS-PID) score, Mean ([2]; Hour 4): 1.50
- Hourly Visual Analog-PID (VAS-PID) score, Median ([2]; Hour 4): −2
- Hourly Visual Analog-PID (VAS-PID) score, Mean ([2]; Hour 5): 1.16
- Hourly Visual Analog-PID (VAS-PID) score, Median ([2]; Hour 5): −2
- Hourly Visual Analog-PID (VAS-PID) score, Mean ([2]; Hour 6): 1.36
- Hourly Visual Analog-PID (VAS-PID) score, Median ([2]; Hour 6): −2
- Hourly Visual Analog-PID (VAS-PID) score, Mean ([2]; Hour 7): −1.10
- Hourly Visual Analog-PID (VAS-PID) score, Median ([2]; Hour 7): −2
- Hourly Visual Analog-PID (VAS-PID) score, Mean ([2]; Hour 8): −0.02
- Hourly Visual Analog-PID (VAS-PID) score, Median ([2]; Hour 8): −2
- VAS-SPID up to 4 Hours, Mean ([2]; ITT, single oral dose): −16.54
- VAS-SPID up to 4 Hours, Median ([2]; ITT, single oral dose): −19
- VAS-SPID up to 6 Hours, Mean ([2]; ITT, single oral dose): −14.02
- VAS-SPID up to 6 Hours, Median ([2]; ITT, single oral dose): −18
- VAS-SPID up to 8 Hours, Mean ([2]; ITT, single oral dose): −15.14
- VAS-SPID up to 8 Hours, Median ([2]; ITT, single oral dose): −27
- Time to Remedication up to 8 Hours, Median ([3]; Kaplan-Meier): 2.48 h
- Time to Remedication up to 24 Hours, Median ([3]; Kaplan-Meier): 2.48 h
- Percent of Subject who take Remedication up to 8 hours, No ([3]; first section of Table 9): 15 (30.0%) n (%)
- Percent of Subject who take Remedication up to 8 hours, Yes ([3]; first section of Table 9): 35 (70.0%) n (%)
- Percent of Subject who take Remedication up to 8 hours, No ([3]; second section of Table 9): 8 (16.0%) n (%)
- Percent of Subject who take Remedication up to 8 hours, Yes ([3]; second section of Table 9): 42 (84.0%) n (%)
- Number of Subjects taken Rescue Medication ([3]; up to 8 Hours): 35 subjects
- Number of Subjects taken Rescue Medication ([3]; up to 24 Hours): 42 subjects
- Global Evaluation, Observer Evaluation: Excellent [4]: 2 (4.0%) n (%)
- Global Evaluation, Observer Evaluation: Fair [4]: 13 (26.0%) n (%)
- Global Evaluation, Observer Evaluation: Good [4]: 5 (10.0%) n (%)
- Global Evaluation, Observer Evaluation: Poor [4]: 25 (50.0%) n (%)
- Global Evaluation, Observer Evaluation: Very Good [4]: 5 (10.0%) n (%)
- Global Evaluation, Subject Evaluation: Excellent [4]: 1 (2.0%) n (%)
- Global Evaluation, Subject Evaluation: Fair [4]: 13 (26.0%) n (%)
- Global Evaluation, Subject Evaluation: Good [4]: 4 (8.0%) n (%)
- Global Evaluation, Subject Evaluation: Poor [4]: 26 (52.0%) n (%)
- Global Evaluation, Subject Evaluation: Very Good [4]: 6 (12.0%) n (%)
- affinity for α2-adrenoreceptors (α2-adrenoreceptors): does not have affinity
